Laboratory results taken from publication PMC11503492, “Activity-Based DNA-Encoded Library Screening for Selective Inhibitors of Eukaryotic Translation” (ACS Central Science, 2024).
Entries after “also recorded” stand apart in the source; their conditions may differ.

Legend:
[1] = system: RPL27[1:32]-GFP translation; assay: WG IVTT activity assay, RPL27[1:32]-GFP template; format: biochemical, wheat germ
Source text: A commercially available wheat germ lysate (WG) IVTT system was employed to assay translation inhibition. Translation activity was detected via a GFP reporter, and the assay was miniaturized to picoliter-scale microfluidic droplets (Figure 1A,B). […] PCSK9 and RPL27 were truncated to the first 33 and 32 amino acids, respectively (PCSK9[1:33] and RPL27[1:32]). The sequences contain distinct PF846 stall sites and were both fused to a GFP reporter. The GFP reporter and a frameshift mutant of PCSK9[1:33] (PCSK9-FS[1:33]), which mutates the nascent chain sequence while maintaining a nearly identical mRNA sequence, were included as negative controls.[13] […] The WG IVTT assay was miniaturized using a previously described microfluidic circuit modified for longer incubation times (Figure S1)[27] using PF846 as a positive control compound, and assay statistical quality was calculated (Z′=0.7) (Figure 1E). […] Assay statistical quality using PC-HygB positive control beads was similarly calculated (Z′ = 0.75, Figure 1H). […]
429 of encoding region identifiers was then determined using a UMI aggregation algorithm; […]
433 manually determined threshold (10) were discarded. […]
440 progress was immediately monitored (λex = 480 nm, λem = 530 nm, 27 °C, 2 h). […]
441 tive activity was calculated using the slope of fluorescence increase over time (at 15–30 […]
Figure S11. […] Compound 8 (black) and PF846 (gray) were analyzed […]

[2] = system: PCSK9 expression in HepG2 cells; assay: HepG2 cellular assay, PCSK9 Western blot; format: cell-based; settings: 16 h treatment, 5 or 50 µM, triplicate, normalized to DMSO
Procedure: Reaction buffer (1 µL) and template (0.5 µL) were added and reaction progress was
Relative activity was cal-
450 culated using the slope of fluorescence increase over time (15–30 min post reaction initia-
Gene blocks were purchased from IDT
Digestion with Sgf I and PmeI allowed for
Sequence-verified plasmids
460 were cloned into DH5α E. coli for standard large-scale DNA plasmid preparation.
Gene blocks were purchased
Digestion with NdeI and XhoI
470 (4.5 g/L high-glucose DMEM, 2 mM L-glutamine, 10% fetal bovine serum, 1% penicillin-
Cells were lysed (100 µL RIPA buffer,
Protein lysates (24 µg) were separated by denaturing polyacrylamide
480 PCSK9 rabbit monoclonal antibody, 5% BSA in PBS-T). The PCSK9 probed membrane
HRP-labeled bands were visualized
Figure S12. […] PCSK9 expression in HepG2 cells
treated 16 h with PF846 or screening hit 8 (5 or 50 µM) or vehicle control (DMSO) was analyzed in triplicate
(also on this page, place not known: S12894 GAPDH pro m DMSO 5 μM DMSO μM 5 μM 50 μM PCSK9 PF846 hit8 50)
(1 picture or pasted object on this page, not shown here)

SMILES: Cc1cccc2ccnc(N(C(=O)[C@H]3CCCN(C(=O)c4cccc5c(C#N)c[nH]c45)C3)[C@@H]3CCCNC3)c12 [Compound 8]
- activity on RPL27[1:32]-GFP translation (in words) [1]: most active
- PCSK9 protein levels in HepG2 cells (in words) [2]: significantly reduced; also recorded: lower levels of endogenous PCSK9
